Experimental data from US20130244875A1, “METHODS AND COMPOSITIONS FOR IMPROVING PLANT HEALTH” (priority 2006, published 2013).
Several values for one entry are separate records, joined by “and”; a condition that tells them apart may be missing. Equal values may be shown once. Read-outs that look alike come from different tables or passages of the source.

What was measured:
[1] = tested on: cotton plants; experiment: Paraquat (Gramoxone) oxidative stress injury in cotton; type: in vivo; settings: 2 DAT, DCSA (if given) 1 lb/Acre 24 hours before
Description: Four different cotton cultivars as indicated in Table 3 were grown in 4-inch pots for two weeks. These cotton plants were either sprayed with DCSA (BASF) at the 1 lb/A rate, or unsprayed (no DCSA application, as control). Experimental plants (treated with DCSA and untreated) were sprayed with Paraquat (Gramoxone®; Syngenta) at 30 gm/ha, 70 gm/ha, and 100 gm/ha rates, 24 hours after the application of DCSA, to simulate oxidative stress. […] The same experiment was repeated at two different growth stages of cotton (2 nodes stage and 5 nodes stage).

[2] = tested on: soybean plants; settings: for % injury: N3001 non-transgenic soybean, 4 DAT, ANOVA mean; for % injury at 5 DAT Paraquat alone control 100 g ae/ha: paraquat alone 100 g ae/ha
Description: For this example, the plants were grown as described in the above example. Transgenic and non transgenic soybean plants carrying the DMO gene in their genome were either treated with Paraquat (Gramoxone®; Syngenta) to create oxidative stress or with dicamba followed by Paraquat at V3 stage. The dicamba rate was 1 lb/Acre or 1120 g ae/ha. […] Plants were then evaluated for paraquat injury by visually assessing injury at a particular day after treatment (DAT) for injury on a scale of 0 to 100 percent relative to untreated control plants, with zero representing “no” injury and 100% representing “complete” injury or death. Data were collected and analyzed using suitable statistical methods.
In another experiment, the effect of externally applied DCSA was tested for its benefit in protecting soybean plants from oxidative stress injury caused by Paraquat. Different amounts of DCSA were applied 24 hrs before applying Paraquat to test any correlation between the amount of DCSA applied and the extent of protection obtained from oxidative stress measured in terms of reduction in % injury as described above. Different levels of dicamba were also applied separately to test the same hypothesis.

[3] = tested on: Verticillium (isolate King); experiment: Verticillium wilt protection in cotton, isolate King; type: in vivo, Verticillium dahliae; settings: cotton ST6611, DCSA 1 lb/A, glyphosate 0.75 lb/A, 24 hours before inoculation
Excerpt: (§1) DCSA was unexpectedly found to provide protection to cotton plants against Verticillium dahliae, causal agent of cotton wilt disease (Table 6). Cotton plants of the variety ST6611, BOLLGARD 2, ROUNDUP READY FLEX, were inoculated with a moderate isolate (DPL) or a virulent isolate (King) of Verticillium by a seedling dipping method. Seedlings at the first true leaf stage were taken out from the pots, one inch of roots were cut off, seedlings were dipped in a spore slurry for one minute, and then transplanted back in the pots. These strains were isolated and provided by Dr. Terry Wheeler (Texas A&M University, TX USA). DCSA was applied at the rate of 1 lb/A and glyphosate (ROUNDUP WEATHERMAX, Monsanto Company, St. Louis, Mo.) at the rate of 0.75 lb/A 24 hours before inoculation. Protection against Verticillium was measured on a disease severity scale of 1-9:1 being healthy and 9 being dead because of disease, and also was measured as the number of plants that survived out of 10 inoculated plants.

[4] = tested on: Verticillium (isolate DPL); experiment: Verticillium wilt protection in cotton, isolate DPL; type: in vivo, Verticillium dahliae; settings: cotton ST6611, DCSA 1 lb/A, glyphosate 0.75 lb/A, 24 hours before inoculation
Excerpt: as §1

[5] = tested on: soybean plants; experiment: Copper injury on soybeans; type: in vivo; settings: 1000 ppm copper sulfate foliar spray alone; soybean V1-2; 5 days after treatment
Excerpt: Plants are sensitive to heavy metal toxicity. Heavy metals are present in the environment or sometimes applied to plants for pest control. Symptoms of plant injury following treatment with a heavy metal compound, for example, a compound containing copper, are necrotic leaf spotting and flecking with more severe injury resulting in larger reddish brown spots, […] necrosis and/or necrotic puckered leaves.

[6] = tested on: haploid seeds of corn genotype 01DKD2; experiment: Haploid corn seed pretreatment before colchicine doubling; type: in vivo; settings: seeds imbibed 24 hours before 0.0625% colchicine; for Doubling efficiency: water 5; for 10 inch pot survival: water 53; for Percent Pollination: water 81; for Percent germination: water 90
Description: The use of these chemicals during the doubling process is toxic and stressful to the treated plant or seed. […] To determine quantify the effect of acetyl salicylic acid (ASA) and salicylic acid (SA) on plant health of haploid plants subjected to colchicine treatments, haploid seeds of corn genotype 01DKD2 were treated with 100-500 microMolar (μM) of DCSA, ASA, or SA or combinations thereof by imbibing the seeds in a solution of the compound for 24 hours before colchicine treatment of the seeds. A solution of 0.0625% colchicine (Sigma Aldrich, St. Louis, Mo. Cat#C3915) and 1.5% DMSO (Sigma Aldrich, St. Louis, Mo. Cat#D8779) was used to treat the seeds and the seeds incubated in the solution at 25° C. for 5 days in the dark. The germination rate, survival rate of the treated plants, fertility, and doubling rate were measured.

[7] = tested on: DMOxRR2Y soybean stack; experiment: 2,4-D postemergence injury on DMOxRR2Y soybean; type: in vivo; settings: V3, 3, 30, 60, 120 and 280 g ae/ha, all rates, 20 days after treatment
Excerpt: A rate titration of 2,4-D (2,4-D amine, Helena Chemical Co., Memphis, Tenn.) was applied as postemergence (POST) treatment at V3 growth state of breeding stack of DMO soybean and RR2Y (RR2Y is MON89788 event, U.S. application Ser. No. 11/441,914) transgenic soybean. 2,4-D was applied as a postemergence (POST) treatment (V3) at 5 application rates on DMOxRR2Y soybean stack and compared for total crop injury across all application rates. The POST herbicide application rates used for this trial were 3 g ae/ha (acid equivalent/hectare), 30 g ae/ha, 60 g ae/ha, 120 g ae/ha and 280 g ae/ha of 2,4-D. The treated plants were rated for 2,4-D symptoms 20 days after treatment.

Work on `C[n+]1ccc(-c2cc[n+](C)cc2)cc1` [Paraquat] yielded a Percentage injury ([1]; cotton ST3273B2RF, Gramoxone 30 g a.i./ha) of 35%, a Percentage injury ([1]; cotton ST3273B2RF, Gramoxone 70 g a.i./ha) of 50% and a Percentage injury ([1]; cotton ST3273B2RF, Gramoxone 100 g a.i./ha) of 50%. For the same compound, the Percentage injury ([1]; cotton ST4575BR, Gramoxone 30 g a.i./ha) was 37.5%, the Percentage injury ([1]; cotton ST4575BR, Gramoxone 70 g a.i./ha) was 42.5% and the Percentage injury ([1]; cotton ST4575BR, Gramoxone 100 g a.i./ha) was 65%. It also gave a Percentage injury ([1]; cotton ST4646B2RF, Gramoxone 30 g a.i./ha) of 31.5%, a Percentage injury ([1]; cotton ST4646B2RF, Gramoxone 70 g a.i./ha) of 42.5% and a Percentage injury ([1]; cotton ST4646B2RF, Gramoxone 100 g a.i./ha) of 70%. It also gave a Percentage injury ([1]; cotton ST6622RF, Gramoxone 30 g a.i./ha) of 42.5%, a Percentage injury ([1]; cotton ST6622RF, Gramoxone 70 g a.i./ha) of 50% and a Percentage injury ([1]; cotton ST6622RF, Gramoxone 100 g a.i./ha) of 70%. For the same compound, the “% injury” value ([2]; paraquat 30 g ae/ha at V-3) was 32.5%, the “% injury” value ([2]; paraquat 70 g ae/ha at V-3) was 50.8% and the “% injury” value ([2]; paraquat 200 g ae/ha at V-3) was 75%. For the same compound, the injury rate ([2]; transgenic plants contacted with Paraquat alone (Table 2)) was “about 75%”, the “% injury at 5 DAT Paraquat alone control 100 g ae/ha” value ([2]; transgenic soybean event 462-1-21) was 75.83% and the “% injury at 5 DAT Paraquat alone control 100 g ae/ha” value ([2]; transgenic soybean event 469-13-19) was 77.50%.

With `O=C(O)CNCP(=O)(O)O` [Glyphosate, N-phosphonomethylglycine, reference compound] the “Severity rating (1-9)” value ([3]; 1 healthy, 9 dead, inoculated check 9) was 3.5, the “Plant survival rating (out of 10)” value ([3]; inoculated check 0) was 10 and the “Severity rating (1-9)” value ([4]; 1 healthy, 9 dead, inoculated check 5) was 2. For the same compound, the “Plant survival rating (out of 10)” value ([4]; inoculated check 8) was 10.

`O=S(=O)([O-])[O-].[Cu+2]` [Cu, copper sulfate] was tested, and the Percent injury [5] was 45% and 45.0a Percent.

`CC(=O)Oc1ccccc1C(=O)O` [ASA, acetyl salicylic acid] was tested, and the Doubling efficiency ([6]; 100 μM (each)) was 0, the “10 inch pot survival” value ([6]; 100 μM (each)) was 62 and the “Percent Pollination” value ([6]; 100 μM (each)) was 86%. For the same compound, the Percent germination ([6]; 100 μM (each)) was 87%, the Doubling efficiency ([6]; 250 μM (each)) was 8 and the “10 inch pot survival” value ([6]; 250 μM (each)) was 60. For the same compound, the “Percent Pollination” value ([6]; 250 μM (each)) was 78%, the Percent germination ([6]; 250 μM (each)) was 85% and the Doubling efficiency ([6]; 500 μM (each)) was 5. The “10 inch pot survival” value ([6]; 500 μM (each)) was 35, the “Percent Pollination” value ([6]; 500 μM (each)) was 71% and the Percent germination ([6]; 500 μM (each)) was 68%.

`CNC.O=C(O)COc1ccc(Cl)cc1Cl` [2,4-D] was tested, and the “POST 2,4-D injury compared to treated non-transgenic control A3525” value [7] was “significantly (ANOVA test) lower”.

`O=C(O)c1ccccc1O` [SA, salicylic acid] was tested, and the Doubling efficiency ([6]; 100 μM (each)) was 2, the “10 inch pot survival” value ([6]; 100 μM (each)) was 48 and the “Percent Pollination” value ([6]; 100 μM (each)) was 83%. For the same compound, the Percent germination ([6]; 100 μM (each)) was 80%, the Doubling efficiency ([6]; 250 μM (each)) was 3 and the “10 inch pot survival” value ([6]; 250 μM (each)) was 58. The “Percent Pollination” value ([6]; 250 μM (each)) was 85%, the Percent germination ([6]; 250 μM (each)) was 85% and the Doubling efficiency ([6]; 500 μM (each)) was 3. The “10 inch pot survival” value ([6]; 500 μM (each)) was 77, the “Percent Pollination” value ([6]; 500 μM (each)) was 89% and the Percent germination ([6]; 500 μM (each)) was 85%.
